Laboratory results as given in patent US20110224079A1, “SPIROHETEROCYCLIC N-OXYAMIDES AS PESTICIDES” (SYNGENTA CROP PROTECTION LLC, priority 2008, published 2011).

Legend:
[1] = tested on: Aphis Craccivora (cowpea aphid); assay: Example B11: translaminar activity against Aphis craccivora on French bean leaves; format: in vivo; details: 120 h, upper leaf side painted, aphids on lower side, 5 days
Experimental: Translaminar Activity Against Aphis Craccivora (Cowpea Aphid)
French bean leaves (Phaseolus vulgaris) are infested with about 20 mixed age individuals on the lower leaf side using clip cages. 1 day after the infestation, the upper side of the leaves is treated with the test solution by painting. 5 days later, samples are checked for mortality.

[2] = tested on: Frankliniella occidentalis (western flower thrips); assay: Example B6: activity against Frankliniella occidentalis, bean leaf discs or bean plants; format: in vivo; details: foliar, 6 days (leaf discs) or 14 days (plants) after infestation, read-out: activity (reduction of treated population)
Experimental: Activity Against Frankliniella occidentalis (Western Flower Thrips)
Bean leaf discs on agar in petri dishes or bean plants in a spray chamber are treated with diluted test solutions. After drying leaf discs are cut and placed in plastic cups on the surface of an agar layer and infested with mixed population. 6 days (leaf discs) or 14 days (plants) after the infestation, samples are checked for reduction of treated population and compared to the non treated population.

[3] = tested on: Myzus persicae (green peach aphid); assay: Example B1: activity against Myzus persicae, sprayed sunflower leaf discs (feeding/residual contact, preventive); details: foliar, 144 h, read-out: activity (mortality)
[4] = tested on: Myzus persicae (green peach aphid); assay: Example B2: activity against Myzus persicae, pea seedling roots in test solution (systemic/feeding, curative); details: 144 h, read-out: activity (mortality)
[5] = tested on: Myzus persicae (green peach aphid); assay: Example B13: drench activity against Myzus persicae, pea seedlings in field soil; details: 168 h, read-out: drench activity (mortality)
[6] = tested on: Bemisia tabaci (tobacco white fly); assay: Example B7: activity against Bemisia tabaci, sprayed bean plants (larvicide, contact/feeding); format: in vivo; details: 504 h, bean plants with N-2 nymphs sprayed, three weeks, read-out: activity (efficacy, number of emerged adults)
Experimental: Activity Against Bemisia tabaci (Tobacco White Fly)
(Larvicide, Contact/Feeding)
Bean plants are infested with 20-30 adults that were removed after a 4 day egg-laying period. After another 7 days, bean plants with hatched nymphs (N-2) are treated (2 replicates) with the test solutions in a spray chamber. Three weeks later, samples are checked for number of emerged adults. Efficacy was calculated by comparing number of emerged adults in treated and non treated samples.

[7] = tested on: Myzus persicae (green peach aphid); assay: Example B17: activity against Myzus persicae on sprayed pepper plants (feeding/residual contact); format: in vivo; details: 144 h, infested pepper plants sprayed, 6 days
[8] = tested on: Tetranychus urticae (two-spotted spider mite); assay: Example B4: activity against Tetranychus urticae, sprayed bean leaf discs (feeding/residual contact, preventive); details: foliar, 192 h, read-out: activity (egg, larval and adult mortality)
[9] = tested on: Nilaparvata lugens (brown rice planthopper); assay: Example B8: activity against Nilaparvata lugens, sprayed rice seedlings (larvicide, feeding/contact); details: in Oryza sativa, read-out: activity (mortality, growth regulation, effects on F1 generation)
[10] = tested on: Aphis Craccivora (cowpea aphid); assay: Example B9: activity against Aphis craccivora, sprayed pea seedlings (contact/feeding); format: in vivo; details: 144 h, infested pea seedlings sprayed, 6 days
Description: (§1) Activity Against Aphis Craccivora (Cowpea Aphid)
(Mixed Population, Contact/Feeding)
6 days after treatment, samples are checked for mortality.

[11] = tested on: Aphis Craccivora (cowpea aphid); assay: Example B10: activity against Aphis craccivora, pea seedling roots in test solution (systemic/feeding); format: in vivo; details: 144 h, roots of infested pea seedlings in test solution, 6 days
Description: as §1
(Mixed Population, Systemic/Feeding)

[12] = tested on: Thrips tabaci (onion thrips); assay: Example B3: activity against Thrips tabaci, sprayed sunflower leaf discs (feeding/residual contact, preventive); format: in vivo; details: foliar, 144 h, mixed population, 6 days
Description: Activity Against Thrips tabaci (Onion Thrips)
(Mixed Population, Feeding/Residual Contact Activity, Preventive)

| SMILES | mortality at 400 ppm [1] | pest or weed control at 400 ppm [2] | mortality at 400 ppm [3] | mortality at 400 ppm [4] | mortality at 25 ppm [5] | pest or weed control at 200 ppm [6] | mortality at 200 ppm [7] | mortality at 400 ppm [8] | mortality at 400 ppm [9] | mortality at 400 ppm [10] | mortality at 400 ppm [11] | mortality at 400 ppm [12] |
| --- | --- | --- | --- | --- | --- | --- | --- | --- | --- | --- | --- | --- |
| C=CCON1C(=O)C(c2c(C)cc(C)cc2C)=C(O)C12CCN(OC)CC2 [P2.12] | > 80% | > 80% | > 80% | > 80% | > 80% | > 80% | ≥ 80% | > 80% |  |  |  |  |
| CCOC(=O)OC1=C(c2c(C)cc(C)cc2C)C(=O)N(OCC2CCCCO2)C12CCN(OC)CC2 (centres unmarked) [P1.26] | > 80% |  | > 80% | > 80% | > 80% |  | ≥ 80% | > 80% | > 80% | > 80% | > 80% |  |
| CON1CCC2(CC1)C(O)=C(c1c(C)cc(C)cc1C)C(=O)N2OC(C)C [P2.11] |  | > 80% |  | > 80% | > 80% |  | ≥ 80% | > 80% |  |  |  |  |
| CON1CCC2(CC1)C(O)=C(c1c(C)cc(C)cc1Cl)C(=O)N2OC [P2.55] | > 80% | > 80% | > 80% | > 80% | > 80% |  |  | > 80% | > 80% |  | > 80% |  |
| CCOC(=O)OC1=C(c2c(C)cc(C)cc2C)C(=O)N(OC2CCC2)C12CCN(OC)CC2 [P1.45] | > 80% | > 80% | > 80% | > 80% |  |  | ≥ 80% | > 80% | > 80% |  |  |  |
| CON1CCC2(CC1)C(O)=C(c1c(C)cc(C)cc1Br)C(=O)N2OC [P2.56] | > 80% | > 80% | > 80% | > 80% | > 80% |  |  | > 80% |  |  | > 80% |  |
| CON1CCC2(CC1)C(O)=C(c1c(C)cc(C)cc1C)C(=O)N2OC1CCC1 [P2.30] | > 80% | > 80% | > 80% | > 80% | > 80% |  | ≥ 80% | > 80% |  |  |  |  |
| CCOC(=O)OC1=C(c2c(C)cc(C)cc2C)C(=O)N(OCC2CC2)C12CCN(OC)CC2 [P1.18] | > 80% | > 80% | > 80% | > 80% | > 80% | > 80% | ≥ 80% | > 80% | > 80% |  |  |  |
| CCOC(=O)OC1=C(c2cc(C)ccc2C)C(=O)N(OCCOC)C12CCN(OC)CC2 [P1.3] | > 80% |  | > 80% | > 80% | > 80% |  | ≥ 80% |  | > 80% | > 80% | > 80% |  |
| CCOC(=O)OC1=C(c2c(C)cc(C)cc2C)C(=O)N(OCC2CCOCC2)C12CCN(OC)CC2 [P1.82] | > 80% |  | > 80% | > 80% | > 80% | > 80% | ≥ 80% | > 80% | > 80% | > 80% | > 80% |  |
| CCOC(=O)OC1=C(c2c(C)cc(C)cc2C)C(=O)N(OCc2ccco2)C12CCN(OC)CC2 [P1.81] |  |  | > 80% | > 80% |  |  | ≥ 80% | > 80% |  |  |  | > 80% |
| CCOC(=O)OC1=C(c2ccc(C)cc2C)C(=O)N(OC)C12CCN(OC)CC2 [P1.48] | > 80% |  | > 80% | > 80% | > 80% | > 80% | ≥ 80% | > 80% | > 80% | > 80% |  |  |
| CCOC(=O)OC1=C(c2cc(C)ccc2C)C(=O)N(OC)C12CCN(OC)CC2 [P1.1] | > 80% |  | > 80% | > 80% | > 80% |  | ≥ 80% |  | > 80% | > 80% | > 80% |  |
| CCOC(=O)OC1=C(c2c(C)cc(C)cc2C)C(=O)N(OC2CCCCO2)C12CCN(OC)CC2 (centres unmarked) [P1.10] | > 80% | > 80% | > 80% | > 80% | > 80% | > 80% | ≥ 80% | > 80% | > 80% |  | > 80% |  |
| CCOCON1C(=O)C(c2c(C)cc(C)cc2C)=C(O)C12CCN(OC)CC2 [P2.10] | > 80% | > 80% | > 80% | > 80% |  |  | ≥ 80% |  | > 80% |  | > 80% | > 80% |
| CCOC(=O)OC1=C(c2c(C)ccc(C)c2Cl)C(=O)N(OCCOC)C12CCN(OC)CC2 [P1.60] | > 80% | > 80% | > 80% | > 80% | > 80% |  |  | > 80% | > 80% | > 80% | > 80% |  |
| CCOC(=O)OC1=C(c2cc(C)ccc2C)C(=O)N(O)C12CCN(OC)CC2 [P1.12] |  |  | > 80% | > 80% |  |  |  |  | > 80% |  |  | > 80% |
| CCOCON1C(=O)C(c2ccc(C)cc2C)=C(OC(=O)OCC)C12CCN(OC)CC2 [P1.49] | > 80% |  | > 80% | > 80% | > 80% |  |  | > 80% | > 80% |  |  | > 80% |
| COCCOCON1C(=O)C(c2c(C)cc(C)cc2C)=C(O)C12CCN(OC)CC2 [P2.24] | > 80% |  | > 80% | > 80% | > 80% |  | ≥ 80% | > 80% | > 80% | > 80% | > 80% |  |
| COCON1C(=O)C(c2c(C)ccc(C)c2C)=C(O)C12CCN(OC)CC2 [P2.54] | > 80% | > 80% | > 80% | > 80% | > 80% |  | ≥ 80% |  |  |  | > 80% |  |
| CCOC(=O)OC1=C(c2c(C)cc(C)cc2C)C(=O)N(OC(C)C)C12CCN(OC)CC2 [P1.14] | > 80% | > 80% |  | > 80% |  |  | ≥ 80% |  |  |  |  |  |
| COCON1C(=O)C(c2c(C)cc(C)cc2Cl)=C(O)C12CCN(OC)CC2 [P2.34] | > 80% |  | > 80% | > 80% | > 80% |  |  | > 80% | > 80% | > 80% | > 80% | > 80% |
